Test results: paper PMC5587642, “A Novel Benzocoumarin-Stilbene Hybrid as a DNA ligase I inhibitor with in vitro and in vivo anti-tumor activity in breast cancer models” (Scientific Reports, 2017)

How the values were obtained:
[1] = system: 4T1 (Mouse Breast Cancer); test: MTT cell viability assay; format: cell-based
Description: (§1) Cell viability assay was performed as described previously. Briefly, cells were seeded in 96 well plates and treated with different concentrations of compound 19 for 48 h. After drug treatment, MTT reagent was added in each well of the plate and cell viability was quantified by measuring the absorbance at 590 nm.

[2] = system: A172 (Brain); test: MTT cell viability assay; format: cell-based
Description: as §1

[3] = system: A549 (Lung); test: MTT cell viability assay; format: cell-based
Description: as §1

[4] = system: DLD1 (Colon); test: MTT cell viability assay; format: cell-based
Description: as §1

[5] = system: HEK-293 (Non-cancerous cell); test: MTT cell viability assay; format: cell-based
Description: as §1

[6] = system: PANC-1 (Pancreas); test: MTT cell viability assay; format: cell-based
Description: as §1

[7] = system: PLC/PRF/5 (Liver); test: MTT cell viability assay; format: cell-based
Description: as §1

[8] = system: SK-OV-3 (Ovary); test: MTT cell viability assay; format: cell-based
Description: as §1

[9] = system: MDA-MB-231 cells; test: Clonogenic survival assay; format: cell-based, human; conditions: 0.75, 1.5 and 3 µM; 24 and 48 h treatment
Description: Clonogenic survival assay was performed as described previously[16] with modifications. MDA-MB-231 cells (100 cells) were seeded in 12 well plates for 24 h. Cells were then treated with different concentrations of compound 19 (0.75, 1.5 and 3 µM) for 24 and 48 h. After drug treatment, culture medium was replaced with fresh medium and cells were cultured for another 10 days. After 10 days, the cells were washed with PBS carefully and stained with a solution containing 6% glutaraldehyde and 0.5% crystal violet.

[10] = system: MDA-MB-231 cells; test: Cell cycle distribution analysis (PI, FACS); format: cell-based, human; conditions: 12 µM
Description: For the study of cell cycle distribution, cells were synchronized by serum starvation for 48 h and then grown in serum containing media in the presence or absence of 12 µM compound 19, after 0, 24 and 48 h, cells were harvested, washed twice with cold PBS and fixed with 70% ethanol. The fixed cells were washed with chilled PBS and then stained with 50 μg/mL of Propidium iodide. Cell cycle distribution was analyzed by using FACS-Calibur (BD Biosciences, San Diago, CA).

[11] = Metabolic stability in rat liver microsomes; format: in vitro ADME
Description: Major drug clearance in the body occurs due to its metabolism in the liver. Metabolic stability in rat liver microsomes (RLM) was conducted in triplicate. Compound 19 (5 µM) was incubated in reaction milieu which contains RLM (0.5 mg/ml), MgCl2 (10 mM), NADPH (10 mM) in a 1.5 ml phosphate buffer solution (pH 7.4). Reaction was started by the addition of NADPH and kept in a shaking water bath at 37 °C. Organic content in reaction mixture was kept less than 1%. Time points at which samples were withdrawn were 0, 5, 15, 30, 45, 60 min. Testosterone was used as control to know the RLM enzyme activity. Control reaction without NADPH was performed to explore any chemical instability or non-cofactor dependent enzymatic degradation. At each time point 150 µL aliquots were withdrawn and added in 150 µL ACN, […] at 10,000 g for 5 minutes, 100 µL samples was pipetted out & analyzed in HPLC-PDA.

[12] = target: T1, flap cleavage activity (FEN1) in MDA-MB-231 cell lysate (Homo sapiens, UniProt P39748); test: Ex-vivo flap cleavage with lysate of treated cells; format: cell-based; conditions: MDA-MB-231, treated 48 h
T1 construct: endogenous in cells; host or cells: MDA-MB-231
T1 sequence (P39748 whole entry): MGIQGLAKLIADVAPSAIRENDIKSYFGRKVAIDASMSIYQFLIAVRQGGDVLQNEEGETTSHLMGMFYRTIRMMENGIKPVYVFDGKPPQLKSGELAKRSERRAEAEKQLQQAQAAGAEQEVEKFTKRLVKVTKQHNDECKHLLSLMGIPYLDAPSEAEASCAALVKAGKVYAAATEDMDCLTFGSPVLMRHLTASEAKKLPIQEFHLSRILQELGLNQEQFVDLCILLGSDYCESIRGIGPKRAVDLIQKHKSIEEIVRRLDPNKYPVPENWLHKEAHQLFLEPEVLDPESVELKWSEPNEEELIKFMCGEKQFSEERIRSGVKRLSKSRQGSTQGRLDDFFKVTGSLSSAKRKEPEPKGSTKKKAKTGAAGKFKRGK
Description: Cells (MDA-MB-231) were seeded in 6 well plates and treated either with vehicle control (DMSO) or with different concentrations (6 and 12 µM) of compound 19 for 48 h. After the treatment cell lysate was prepared and western blotting was performed as described previously. Briefly, the cells were lysed by very brief sonication. Sonicated samples were centrifuged and the supernatant was collected and used for ligation assay and western blotting.
The MDA-MB-231 and 4T1 cells were treated with different concentrations of compound 19 for 48h. Cell lysate were prepared as described previously ^6 for the ligation assay. Here we used same DNA substrate which was used in FEN1 flap cleavage assay so that we can check the activity of hLigI and FEN1 proteins in compound 19 treated samples. The reactions were performed as described previously ^6. In the Supplementary Fig. 74 cleaved product remain (25 mer) same. This cleaved product occurs after the cleavage of 25+6 mer oligo by FEN1 protein, since the cleaved product (25 mer) remains same in treated as well as in control samples we can conclude that the compound 19 unable to inhibit the FEN1 protein inside the cells. The cleaved product (25 mer) make a double strand nicked substrate for hLig I protein with 27 mer and 52 mer oligo used in the reaction. hLigI protein gives rise to ligated (52 mer oligo) product after the completion of reaction. […]

[13] = system: plasmid DNA (pUC18); test: DNaseI cleavage protection assay; format: binding; conditions: up to 500 µM
Description: We performed DNaseI cleavage assay as described in our previous study. Briefly, 100 ng of plasmid DNA (pUC18) was incubated with 100 µM concentration of doxorubicin (a known DNA intercalator), DAPI (DNA minor groove binder), methyl green (DNA major groove binder) and compound 19 (at 250 and 500 µM concentrations) for 30 min at 37 °C in an incubation buffer similar to ligation buffer. After incubation, the DNA was cleaved by adding 0.0025U of DNaseI in each reaction mixture for 5 min at 37 °C and the reactions were stopped by adding stop buffer which contained 7 M Urea, 20 mM Tris-Cl (pH. 7.5), 50 mM EDTA, 20% glycerol and Bromophenol blue. The samples were resolved on 1% agarose gel and visualized under UV transilluminator and image taken with GE Image quant LAS4010.

[14] = 0 h (treated and untreated cells)

## COc1cc(/C=C/c2cc(=O)oc3c2ccc2ccccc23)cc(OC)c1 [Compound 19, (E)-4-(3,5-dimethoxystyryl)-2H-benzo[h]chromen-2-one]
[1]; 10 µM
  % Inhibition of cell viability at 10 µM, 4T1 (Mouse Breast Cancer): 53.18%
[1]; Mus musculus, MTT, 48 h
  IC50: 11.6 ± 1.7 µM
[2]
  % Inhibition of cell viability at 10 µM, A172 (Brain): 43.71%
[3]
  % Inhibition of cell viability at 10 µM, A549 (Lung): NA (NA= Not active (% Inhibition <30%))
[4]
  % Inhibition of cell viability at 10 µM, DLD1 (Colon): 42.64%
[5]
  % Inhibition of cell viability at 10 µM, HEK-293 (Non-cancerous cell): 37.83%
[6]
  % Inhibition of cell viability at 10 µM, PANC-1 (Pancreas): 50.32%
[7]
  % Inhibition of cell viability at 10 µM, PLC/PRF/5 (Liver): NA (NA= Not active (% Inhibition <30%))
[8]
  % Inhibition of cell viability at 10 µM, SK-OV-3 (Ovary): NA (NA= Not active (% Inhibition <30%))
[9]
  Colony forming ability: inhibited colony forming ability of cells
[10]; [14]
  Cells in G0/G1 phase: 75.12 ± 2.23%
  Cells in G2/M phase: 8.71 ± 1.57%
  Cells in S-phase: 16.18 ± 0.65%
[10]; 24 h
  Cells in G0/G1 phase: 57.61 ± 0.1%
  Cells in G2/M phase: 21.48 ± 2.50%
  Cells in S phase: 20.91 ± 2.61%
[10]; 48 h
  Cells in G0/G1 phase: 33.78 ± 4.77%
  Cells in G2/M phase: 32.53 ± 0.58%
  Cells in S phase: 33.7 ± 4.2%
[11]; 5 µM, RLM 0.5 mg/ml, NADPH, up to 60 min
  Microsomal metabolic stability: 55.5 ± 4.77%
[11]; RLM without NADPH
  Stability in control reaction in the absence of cofactor: stable
[12]
  Flap cleavage activity of lysate of treated cells: remained unaffected
[13]
  Protection of DNA from cleavage by DNase I (DNA binding): no protection from cleavage by DNase I
